Reference: paper PMC9166712, “Fluorescent probes for monitoring myeloperoxidase-derived hypochlorous acid: a comparative study” (Scientific Reports, 2022)
Read-outs that look alike come from different tables or passages of the source. Each block holds one compound with its values, some of them ahead of it.

Key:
[1] = Stability of probe stock solutions; assay type: physicochemical; settings: stock in acetonitrile or water/acetonitrile (1:1 v/v), 6 °C in the dark
Procedure: In the case of FLBA and APF, the two millimolar probe solutions were prepared in the water/acetonitrile mixture (1:1 v/v).

[2] = Competition kinetics of APC and APF with boronate reference for HOCl; assay type: physicochemical; settings: FLBA (for APC) or CBA (for APF) 25 µM as reference, HOCl 5 µM, pH 7.4
Procedure: The rate constants of 1.8 × 10^4 M^−1s^−1 and 1.1 × 10^4 M^−1s^−1 were obtained for CBA and FLBA, respectively, which are typical values reported for this class of probes (Fig. 4a,b)[29],[36],[38],[45]. […] The highest rate constant was obtained for the NBD-TM probe which was equal to 1.0 × 10^7 M^−1s^−1. This rate constant was calculated using a second order rate constant of 1.8 × 10^4 M^−1s^−1 for the reference compound (CBA). The determined value of the rate constant for NBD-TM is consistent with the reaction rate constants reported for other thioethers with HOCl[41],[46].
(§1) Supplementary Figure S1. (a) Decrease of COH fluorescence in the incubation mixtures containing […]
(§2) in the presence of catalase (100 U/ml, black); in the absence of NaCl (green); in the absence of NaCl but in the presence of catalase (dark blue); in the absence of MPO (light blue); in th e absence of MPO but in the presence of catalase (pink). ( b), (c) same as (a) but instead of COH, incubation mixtures contained fluorescein and NBD -TSO, respectively.
Supplementary Figure S2. The relationship used to determine the rate constant between APF and HOCl (a), or […] and HOCl (b), according to the competition kinetic approach. The solid lines in the panel (a) and (b) represent the linear fittings to the equation […]
(2kFLBA+HOCl = 1,11 × 104 M-1s-1). […] The concentrations of COH and fluorescein were determined by LC/MS. […]

MPO [3] = target: T1, MPO (Homo sapiens, UniProt P05164); assay: Z' parameter of the MPO/H2O2/Cl- assays; design: MPO from human neutrophils was obtained from Athens Research and Technology; purchased Athens Research and Technology (Athens, GA); host or cells: human neutrophils (natural source, donor material); settings: both end-point (20 min) and kinetic (initial rates over 5 min) measurements
Procedure: The Z’ parameter is a measure of the assay quality in terms of its applicability to screen for bioactive compounds in cell-free or cell-based systems. The Z’ value of 0.5 or higher is generally accepted for the application of any assay for high throughput screening (HTS) of large chemical libraries. For the probes tested, the Z’ parameter was calculated on the basis of end-point measurements (fluorescence measured at a specific time of incubation) and kinetic measurements (rates of fluorescence increase), according to the Eq. 5. In the end-point measurements the Z’ values were calculated for the time of incubation equal to 20 min. To calculate the kinetic Z’ the initial rates of fluorescent product formation over 5 min were used. […] The lowest Z’ values around 0.7 were obtained for the NBD-TM probe. All the probes produced the Z’ values compatible with HTS applications.
The Z’ factor is a dimensionless coefficient and was calculated on the basis of data presented in Fig. 3 according to the equation below (Eq. 5)[57].5 Z^′=1-3S.D.control+-3S.D.control -/meancontrol +-meancontrol -, where S.D.control+ and S.D.control- are the standard deviation values, and meancontrol+ and meancontrol- are the mean values for the positive and negative control, respectively. The value of Z ' above 0.5 means good quality of the assay. The higher value of Z ' parameter means the better quality of the assay. This parameter cannot reach value higher than 1.

[4] = Effect of DMSO on HOCl-induced probe oxidation; assay type: physicochemical; settings: 20 µM probe, 10 µM HOCl, pH 7.4
From the text: DMSO is a solvent well tolerated by cells and it is often used to dissolve organic compounds intended for cell culture studies. Most chemical libraries for HTS applications use DMSO as the solvent. However, DMSO reacts directly with HOCl with a second-order rate constant of 350 ± 40 M^−1s^−1 and it has been shown that it may interfere with oxidation of boronate probes by HOCl[49]. Thus, the influence of DMSO additive on the observed fluorescence signal generated in the reaction between HOCl and the studied probes was evaluated. In this experiment, the incubation mixtures contained the chosen probe (20 µM), phosphate buffer (50 mM, pH 7.4), and DMSO in the amounts between 0–5% v/v (0–0.7 M). The reaction with HOCl was initiated by the bolus addition of 1 mM sodium hypochlorite to obtain the final HOCl concentration of 10 µM. In the case of NBD-TM that reacts rapidly and stoichiometrically (1:1 ratio) with HOCl[44] about 10 µM of NBD-TSO was formed (Fig. 6). […] The presence of 0.5% v/v (0.07 M) or higher concentrations of DMSO was sufficient to completely scavenge HOCl and block the fluorescence increase.
Incubation mixtures contained 20 µM of a probe, 10 µM HOCl, 0–5% v/v (0–0.7 M) DMSO, and 50 mM phosphate buffer (pH 7.4). (Representative result of three independent experiments is shown. Points represent means ± S.D.)

[5] = Stability of fluorophores in the MPO/H2O2/Cl- system; assay type: physicochemical; settings: fluorophore 5 µM, MPO 1.2 nM, H2O2 10 µM, NaCl 0.1 M, pH 7.4
Procedure: To check the stability of the COH, FL, and NBD-TSO fluorescence signal under the oxidizing conditions of MPO/H2O2/Cl^–, the fluorophores were incubated under the same reaction conditions, as described above for the five probes used in the study (Supplementary Figure S1). […] Overall, the fluorophores formed from the probes used may undergo consumption in the presence of MPO, H2O2 and Cl^–, due to their reaction with HOCl and/or via peroxidatic activity of MPO in the absence of Cl^–. This is, however, expected to occur only under the condition of excess of the oxidants (H2O2 and/or HOCl), as evidenced by the stable fluorescence signals of the products observed within 1 h of incubation (Fig. 3). The experimental design for monitoring HOCl involving probes producing such fluorophores should, therefore, take into account potential consumption of the fluorescent product, when the amount of the oxidant exceeds the probe availability.
as §1, §2
Supplementary Figure S2. The relationship used to determine the rate constant between APF and HOCl (a), or […] and HOCl (b), according to the competition kinetic approach. The solid lines in the panel (a) and (b) represent the linear fittings to the equation
1 = 1 + 1 kAPC/or APF [APC/orAPF]. In the case of reaction between […]
(2kFLBA+HOCl = 1,11 × 104 M-1s-1). In the case of APF, the samples contained APF (0 – 100 µM), HOCl (5 µM), and CBA (25 µM) as a reference compound (2kCBA+HOCl = 1,80 × 104 M-1s-1). The concentrations of COH and fluorescein were determined by LC/MS. […]

MPO [6] = target: T1, MPO; settings: read-out: recommended average IC50 value; average of CBA, FLBA and NBD-TM probes
Procedure: (§3) Mixtures contained MPO (1.2 nM), H2O2 (10 µM), NaCl (0.1 M), phosphate buffer (50 mM, pH 7.4), and the appropriate probe (20 µM). […] In the calculations the initial rates of probes oxidation were used. (Data are means ± standard deviation of three independent experiments).

MPO [7] = target: T1, MPO; settings: read-out: Azide anion IC50, MPO 1.2 nM, H2O2 10 µM, pH 7.4
Procedure: as §3
MPO from human neutrophils was obtained from Athens Research and Technology (Athens, GA, According to the Certificate of Origin, the material used has been obtained from an FDA licensed collection center. Further the donors has given by signature full informed consent for the material to be used in commercial scientific research). […] Fluorescent probes were synthetized according to the procedures described in the literature. The synthesis of fluorescein pinacol boron ester (Fl-B) was performed based on the procedures published by Dickinson et al. and Rios et al.[58],[59]. The obtained boronate was then hydrolyzed to fluorescein boronic acid (FLBA). The synthesis of APF was performed based on the procedure published by Setsukinai and cooworkers. […] The detailed description of synthetic procedures can be found in the Supplementary Information. The CBA synthesis is described elsewhere[37],[61].
The lyophilized powder of MPO was dissolved in distilled water accordingly to the supplier recommendation and, if required, stored at 6 °C by the day of analysis. Such prepared solution was then diluted with phosphate buffer, pH 7.4, to the appropriate concentration and the volume of 0.5–2 µL/well depending on the activity was pipetted directly to 96-well plate (Costar 3840). […] Reactions were stared adding 100 µl/well of 20 µM hydrogen peroxide solution.

[8] = cited from earlier work

T1 sequence (P05164 279-745 limits assumed): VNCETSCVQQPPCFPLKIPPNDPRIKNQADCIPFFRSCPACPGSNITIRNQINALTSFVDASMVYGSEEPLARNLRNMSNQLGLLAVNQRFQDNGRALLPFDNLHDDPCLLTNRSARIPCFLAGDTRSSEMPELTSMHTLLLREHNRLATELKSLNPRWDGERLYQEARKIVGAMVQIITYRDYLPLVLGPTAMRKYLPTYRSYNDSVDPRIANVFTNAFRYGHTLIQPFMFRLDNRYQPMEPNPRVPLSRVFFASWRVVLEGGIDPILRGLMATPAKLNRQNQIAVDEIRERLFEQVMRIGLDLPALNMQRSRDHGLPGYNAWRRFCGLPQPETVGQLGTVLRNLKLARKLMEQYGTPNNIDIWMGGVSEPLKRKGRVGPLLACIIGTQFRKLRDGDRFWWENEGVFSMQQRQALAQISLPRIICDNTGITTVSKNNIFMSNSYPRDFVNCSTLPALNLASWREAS
T1 sequence (P05164 165-273 limits assumed): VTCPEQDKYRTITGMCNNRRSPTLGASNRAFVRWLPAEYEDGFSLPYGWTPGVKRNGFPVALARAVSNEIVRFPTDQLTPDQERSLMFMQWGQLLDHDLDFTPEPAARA

stability of stock solution [1]: stable at least one-month
Z' value (MPO [3]): around 0.9
Compound: Nc1ccc(Oc2ccc3c(-c4ccccc4C(=O)O)c4ccc(=O)cc-4oc3c2)cc1 [APF, 3’-(p-aminophenyl)-fluorescein]
rate constant with HOCl by competition kinetics compared with stopped-flow value [2]: nearly identical rate constants

Z' value (MPO [3]): around 0.9
Compound: 7-(p-aminophenyl)-coumarin [APC]
rate constant with HOCl by competition kinetics compared with stopped-flow value [2]: nearly identical rate constants

stability of stock solution [1]: stable at least one-month
Z' value (MPO [3]): around 0.9
Compound: O=c1ccc2ccc(B(O)O)cc2o1 [CBA, coumarin boronic acid]

stability of stock solution [1]: stable at least one-month
Z' value (MPO [3]): around 0.9
Compound: O=C(O)c1ccccc1-c1c2ccc(=O)cc-2oc2cc(B(O)O)ccc12 [FLBA, fluorescein boronic acid]

Compound: O=[N+]([O-])c1ccc(N2CCSCC2)c2nonc12 [NBD-TM, 4-thiomorpholino-7-nitrobenz-2-oxa-1,3-diazole]
decrease of NBD-TSO concentration by DMSO ([4]; 0.5% (0.07 M) DMSO): about 5%
decrease of NBD-TSO concentration by DMSO ([4]; 1% (0.14 M) DMSO): about 10%
decrease of NBD-TSO concentration by DMSO ([4]; 5% (0.7 M) DMSO): ~35%
Z' value (MPO [3]): around 0.7

stability of the fluorescence signal [5]: decreasing with the time of incubation
Compound: O=c1ccc2ccc(O)cc2o1 [COH, 7-hydroxycoumarin]

Compound: [N-]=[N+]=[N-] [Azide anion, sodium azide]
IC50 (MPO [6]): 700 nM
IC50 (MPO [7]; APC probe 20 µM, NaCl 0.1 M): 1940 nM
IC50 (MPO [7]; APF probe 20 µM, NaCl 0.1 M): 2370 nM
IC50 (MPO [7]; Amplex Red 20 µM, no NaCl): 1040 nM
IC50 (MPO [7]; Amplex Red 20 µM, no NaCl, listed as N3^–): 1000 nM
IC50 (MPO [7]; CBA probe 20 µM, NaCl 0.1 M): 810 nM
IC50 (MPO [7]; FLBA probe 20 µM, NaCl 0.1 M): 540 nM
IC50 (MPO [7]; NBD-TM probe 20 µM, NaCl 0.1 M): 630 nM

Compound: O=[N+]([O-])c1ccc(N2CC[S+]([O-])CC2)c2nonc12 [NBD-TSO]
stability of the fluorescence signal [5]: slowly decomposing or precipitated during the time of incubation

Compound: C[S+](C)[O-] [DMSO]
second-order rate constant of the reaction with HOCl [8]: 350 ± 40 M⁻¹ s⁻¹

Compound: CSCC[C@H](N)C(=O)O [L-methionine]
reaction rate constant with HOCl (^2k) [8]: 3.4e+07 M⁻¹ s⁻¹

Compound: O=C1OC2(c3ccc(O)cc3Oc3cc(O)ccc32)c2ccccc21 [fluorescein]
stability of the fluorescence signal [5]: a slight decrease in the fluorescence intensity
